Experimental data taken from patent publication US20250222009A1, “DINUCLEAR GOLD(I) COMPLEXES FOR TREATING CANCER” (KING FAHD UNIVERSITY OF PETROLEUM AND MINERALS, priority 2024, published 2025).

How the values were obtained:
A549 (lung cancer cells) = assay: MTT cytotoxicity assay, A549; format: cell-based, human; details: 72 h, mean (SD)
Protocol: (§1) The human epithelial ovarian cancer A2780 cell line and its cisplatin-resistant clone A2780cis were obtained from Sigma-Aldrich (Milano, Italy). A2780cis cells were continuously exposed to 1 μM cisplatin to maintain cisplatin resistance. A549 cells (Human non-small cell lung cancer), MCF7 (metastatic breast cancer), PC3 (highly aggressive metastatic prostate cancer), and MG63 (osteosarcoma) were obtained from the American Type Culture Collection (ATCC). Cells were authenticated in laboratory using the PowerPlex 16 HS System. A2780, A2780cis, and PC3 cells were cultured in RPMI-1640 medium; MG63 and MCF7 cells were cultured in DMEM, and A549 cells were cultured in F12 NUT-MIX. The culture medium contained about 10% fetal bovine serum (FBS) (Gibco, Thermo Fisher Scientific, Monza, Italy), about 1% (v/v) of penicillin (10,000 units/mL)-streptomycin (10 mg/mL), and about 1% (v/v) L-glutamine (200 mM) (all from Sigma-Aldrich). Cells were cultured at 37° C. in a 5% CO2, fully humidified atmosphere.
(§2) 2.5×10^3 (PC3, MG63, MCF7) or 4.0×10^3 (A2780, A2780cis, A549) cells were seeded in 96-well microplates in 100 μL culture medium. Cells, allowed to adhere for 24 h, were then treated in triplicate with increasing concentrations of gold compounds. Cisplatin was included as a reference drug. Cell viability was evaluated using 3-(4,5-dimethylthiazol-2-yl)-2,5-diphenyltetrazolium bromide (MTT) assay (Sigma-Aldrich) after 72 h of treatment. Half maximal inhibitory concentrations (IC50), IC25, and IC75 were calculated using the CalcuSyn software version 2 (Biosoft, Ferguson, MO, USA) (See: Chou, T. C.; Talalay, P. Quantitative Analysis of Dose-Effect Relationships: The Combined Effects of Multiple Drugs or Enzyme Inhibitors. Adv. Enzyme Regul. 1984, 22, 27-55, which is incorporated herein by reference in its entirety). Fold resistance was calculated as the ratio of the IC50 of the A2780cis to that of the parental cell line A2780. Alternatively, cell viability was assayed by crystal violet staining (See: Feoktistova, M.; Geserick, P.; Leverkus, M. Crystal Violet Assay for Determining Viability of Cultured Cells. Cold Spring Harb Protoc 2016, 2016, pdb.prot087379, which is incorporated herein by reference in its entirety). Alternatively, after drug treatment, the culture Medium was removed, cells washed, fixed, and stained, and the Crystal Violet solution lasted 20 minutes (See: Sulaiman, A. A. A.; Casagrande, N.; Borghese, C.; Corona, G.; Isab, A. A.; Ahmad, S.; Aldinucci, D.; Altaf M. Design, Synthesis, and Preclinical Activity in Ovarian Cancer Models of New Phosphanegold(I)—N-Heterocyclic Carbene Complexes. J Med Chem 2022, 65, 14424-14440, which is incorporated herein by reference in its entirety).

[1] = test system: PC3 (androgen-resistant prostate cancer); assay: MTT cytotoxicity assay, PC3; format: cell-based; details: 72 h, mean (SD)
Protocol: as §1, §2

MCF-7 (breast cancer) = assay: MTT cytotoxicity assay, MCF-7; format: cell-based; details: 72 h, mean, SD in next cell
Protocol: as §1, §2

[2] = test system: A2780 ovarian cancer cells; assay: MTT cytotoxicity assay, A2780; format: cell-based, human; details: 72 h, mean (SD)
Protocol: as §1, §2

[3] = test system: A2780cis (cisplatin-resistant clone of A2780); assay: MTT cytotoxicity assay, A2780cis; format: cell-based, human; details: for Fold resistance (A2780cis/A2780): IC50 A2780cis/IC50 A2780; for IC50: MTT, 72 h, mean, SD in next cell
Protocol: as §1, §2

A549-MCTSs = assay: 3D-A549-MCTS viability (PrestoBlue); format: cell-based, human
Protocol: To obtain multiple spheroids, 10.0×10^4 A549 cells were seeded in non-adherent conditions on poly-HEMA coated 96 wells (final volume, 200 μL) for four days. After drug treatment (72 h), the cell viability was determined using PrestoBlue Cell Viability Reagent (Thermo Fisher Scientific, Frederick, MD, USA) (See: Casagrande, N.; Celegato, M.; Borghese, C.; Mongiat, M.; Colombatti, A.; Aldinucci, D. Preclinical Activity of the Liposomal Cisplatin Lipoplatin in Ovarian Cancer. Clin Cancer Res 2014, 20, 5496-5506, which is incorporated herein by reference in its entirety).
3D-MCTSs are a model for in vitro drug testing (See: Zanoni, M.; Piccinini, F.; Arienti, C.; Zamagni, A.; Santi, S.; Polico, R.; Bevilacqua, A.; Tesei, A. 3D Tumor Spheroid Models for in Vitro Therapeutic Screening: A Systematic Approach to Enhance the Biological Relevance of Data Obtained. Sci Rep 2016, 6, 19103, which is incorporated herein by reference in its entirety) and to test drug tissue penetration. Thus, the effects of complex 3 in A549-MCTSs were determined by cultivating tumor cells in non-adherent conditions on poly-HEMA coated wells. […] Representative micro-photographs of A549-MCTSs treated with complex 3 (0.3-5 μM) and with cisplatin (15-250 μM) are shown in FIG. 9C.

MG-63 (osteosarcoma) = assay: MTT cytotoxicity assay, MG-63; format: cell-based; details: 72 h, mean, SD in next cell
Protocol: as §1
2.5×10^3 (PC3, MG63, MCF7) or 4.0×10^3 (A2780, A2780cis, A549) cells were seeded in 96-well microplates in 100 μL culture medium. Cells, allowed to adhere for 24 h, were then treated in triplicate with increasing concentrations of gold compounds. Cisplatin was included as a reference drug. Cell viability was evaluated using 3-(4,5-dimethylthiazol-2-yl)-2,5-diphenyltetrazolium bromide (MTT) assay (Sigma-Aldrich) after 72 h of treatment. Half maximal inhibitory concentrations (IC50), IC25, and IC75 were calculated using the CalcuSyn software version 2 (Biosoft, Ferguson, MO, USA) (See: Chou, T. C.; Talalay, P. Quantitative Analysis of Dose-Effect Relationships: The Combined Effects of Multiple Drugs or Enzyme Inhibitors. Adv. Enzyme Regul. 1984, 22, 27-55, which is incorporated herein by reference in its entirety). Fold resistance was calculated as the ratio of the IC50 of the A2780cis to that of the parental cell line A2780. […]

[4] = test system: A2780 ovarian cancer cells; details: from J Med Chem 2022, 65, 14424; cited from earlier work
[5] = test system: A2780cis (cisplatin-resistant clone of A2780); details: from J Med Chem 2022, 65, 14424; cited from earlier work

| Structure (SMILES) | IC50 (A549 (lung cancer cells)) | IC50 (A549 (lung cancer cells); listed as cisplatin) | IC50 [1] | IC50 ([1]; listed as cisplatin) | IC50 (MCF-7 (breast cancer)) | IC50 [2] | Fold resistance (A2780cis/A2780) [3] | IC50 [3] | IC50 (A549-MCTSs; 72 h, PrestoBlue, poly-HEMA coated wells) | IC50 fold higher than complex 3 in A549-MCTSs (A549-MCTSs; cisplatin vs complex 3) | IC50 (MG-63 (osteosarcoma)) | anti-proliferative activity in A2780 cells (comparison) [4] | anti-proliferative activity in A2780cis cells (comparison) [5] |
| --- | --- | --- | --- | --- | --- | --- | --- | --- | --- | --- | --- | --- | --- |
| N.N.[Cl][Pt][Cl] [Cisplatin, reference compound] | 6.21 µM | 6.2 µM | 3.32 µM | 3.3 µM | 22.2 µM | 1.51 µM | 6.93 | 10.4 µM | 44 µM | 46 fold |  |  |  |
| CC(C)c1cccc(C(C)C)c1-n1ccn(-c2c(C(C)C)cccc2C(C)C)[c]1=[Au-][P+](CC[P+]([Au-]=[c]1n(-c2c(C(C)C)cccc2C(C)C)ccn1-c1c(C(C)C)cccc1C(C)C)(c1ccccc1)c1ccccc1)(c1ccccc1)c1ccccc1 [Complex 1, [(Au(IPr))2(C26H24P2)](PF6)2] | 0.22 µM |  | 0.28 µM |  | 0.17 µM | 0.28 µM | 1.18 | 0.33 µM |  |  | 0.31 µM |  |  |
| CC(C)c1cccc(C(C)C)c1-n1ccn(-c2c(C(C)C)cccc2C(C)C)[c]1=[Au-][P+](CCC[P+]([Au-]=[c]1n(-c2c(C(C)C)cccc2C(C)C)ccn1-c1c(C(C)C)cccc1C(C)C)(c1ccccc1)c1ccccc1)(c1ccccc1)c1ccccc1 [Complex 2, [(Au(IPr))2(C27H26P2)](PF6)2] | 0.26 µM |  | 0.25 µM |  | 0.28 µM | 0.28 µM | 1.61 | 0.45 µM |  |  | 0.42 µM |  |  |
| CC(C)c1cccc(C(C)C)c1-n1cc[n+](-c2c(C(C)C)cccc2C(C)C)[c]1[Au-][P+](C1CCCCC1)(C1CCCCC1)C1CCCCC1.ClC(Cl)Cl.F[P-](F)(F)(F)(F)F [[Au(IPr)(Cy3P)]PF6·CHCl3] |  |  |  |  |  |  |  |  |  |  |  | more active | more active |
